The results in this text go back to ChEMBL document CHEMBL3621085, “Tetrazole regioisomers in the development of nitro group-containing antitubercular agents” (Medchemcomm, 2015).

Structures are written as SMILES. Converted amounts (≈) assume the structure as drawn.

The subject of test [1] is Mycobacterium tuberculosis. Nature of the test: Antimycobacterial activity against Mycobacterium tuberculosis My 331/88 after 14 days by micromethod. As to conditions: My 331/88, 336 h. It is filed as functional.
Test [2] relates to Mycobacterium avium. Nature of the test: Antimycobacterial activity against Mycobacterium avium My 330/88 after 14 days by micromethod. It is filed as functional. The note with it: My 330/88, 336 h.
Test [3] has as its system Mycobacterium tuberculosis. The test is described as follows: Antimycobacterial activity against Mycobacterium tuberculosis My 331/88 after 21 days by micromethod. As to conditions: My 331/88, 504 h. The class given is functional.
In test [4] the test system is Mycobacterium avium. The test is described as follows: Antimycobacterial activity against Mycobacterium avium My 330/88 after 21 days by micromethod. It is filed as functional. As to conditions: My 330/88, 504 h.
The test system of test [5] is Mycobacterium kansasii. Nature of the test: Antimycobacterial activity against Mycobacterium kansasii My 235/80 after 7 days by micromethod. It is filed as functional. The note with it: My 235/80, 168 h.
The subject of test [6] is Mycobacterium kansasii. The test is described as follows: Antimycobacterial activity against Mycobacterium kansasii My 235/80 after 14 days by micromethod. It is filed as functional. As to conditions: My 235/80, 336 h.
In test [7] the test system is Mycobacterium kansasii. The test is described as follows: Antimycobacterial activity against Mycobacterium kansasii My 235/80 after 21 days by micromethod. As to conditions: My 235/80, 504 h. It is filed as functional.
The test system of test [8] is Mycobacterium kansasii. Nature of the test: Antimycobacterial activity against Mycobacterium kansasii 6509/96 after 7 days by micromethod. The note with it: 6509/96, 168 h. It is filed as functional.
For test [9], the system named is Mycobacterium kansasii. Nature of the test: Antimycobacterial activity against Mycobacterium kansasii 6509/96 after 14 days by micromethod. The class given is functional. The note with it: 6509/96, 336 h.
In test [10] the test system is Mycobacterium kansasii. The test is described as follows: Antimycobacterial activity against Mycobacterium kansasii 6509/96 after 21 days by micromethod. The class given is functional. The note with it: 6509/96, 504 h.
Test [11] is described as follows: Cytotoxicity against CHOK1 cells assessed as viability after 24 hrs by MTT assay. The class given is cell-based. The note with it: Cricetulus griseus, CHO-K1, 24 h. (In general: Tetrazolium assays rely on reduction of a dye to a coloured formazan, in cell work by metabolically active cells.)

For the molecule `Cn1nnnc1SCc1ccc([N+](=O)[O-])cc1[N+](=O)[O-]`, the MIC – broadly, the smallest concentration in the dilution series that meets the test's criterion for growth inhibition – amounted to 16 µM (≈ 4.74 µg/mL) in [1]; 125 µM (≈ 37 µg/mL) against Mycobacterium avium [2]; 16 µM (≈ 4.74 µg/mL) in [3]; 500 µM (≈ 148 µg/mL) with Mycobacterium avium [4]; 125 µM (≈ 37 µg/mL) against Mycobacterium kansasii [5]; 500 µM (≈ 148 µg/mL) in the test with Mycobacterium kansasii [6]. Besides, the minimal inhibitory concentration (MIC) against Mycobacterium kansasii [7] amounted to 500 µM (≈ 148 µg/mL); against Mycobacterium kansasii [8], 125 µM (≈ 37 µg/mL); with Mycobacterium kansasii [9], 500 µM (≈ 148 µg/mL); in the test on Mycobacterium kansasii [10], 500 µM (≈ 148 µg/mL).

`O=[N+]([O-])c1ccc(C[Se]c2nnnn2Cc2ccc([N+](=O)[O-])cc2)cc1`: the MIC in [1] came out at 62 µM (≈ 26 µg/mL); against Mycobacterium avium [2], 250 µM (≈ 105 µg/mL); in [3] it was 125 µM (≈ 52.4 µg/mL); with Mycobacterium avium [4], 250 µM (≈ 105 µg/mL); against Mycobacterium kansasii [5] it was 62 µM (≈ 26 µg/mL); in the test with Mycobacterium kansasii [6], 125 µM (≈ 52.4 µg/mL). Moreover, the minimum inhibitory concentration (MIC) is 125 µM (≈ 52.4 µg/mL) with Mycobacterium kansasii [7], 32 µM (≈ 13.4 µg/mL) against Mycobacterium kansasii [8], 62 µM (≈ 26 µg/mL) against Mycobacterium kansasii [9] and 62 µM (≈ 26 µg/mL) against Mycobacterium kansasii [10].

As to `O=[N+]([O-])c1cc(Cn2nnc([Se]Cc3ccccc3)n2)cc([N+](=O)[O-])c1`, the minimal inhibitory concentration (MIC) in test [1] came out at 8 µM (≈ 3.35 µg/mL); in the test with Mycobacterium avium [2], 16 µM (≈ 6.71 µg/mL); in test [3], 8 µM (≈ 3.35 µg/mL); against Mycobacterium avium [4], 16 µM (≈ 6.71 µg/mL); against Mycobacterium kansasii [5], 8 µM (≈ 3.35 µg/mL); against Mycobacterium kansasii [6], 16 µM (≈ 6.71 µg/mL). Further, the minimal inhibitory concentration (MIC) worked out at 32 µM (≈ 13.4 µg/mL) in the test on Mycobacterium kansasii [7], 16 µM (≈ 6.71 µg/mL) against Mycobacterium kansasii [8], 32 µM (≈ 13.4 µg/mL) in the test on Mycobacterium kansasii [9] and 32 µM (≈ 13.4 µg/mL) in the test with Mycobacterium kansasii [10]. In addition, in [11], the 50% inhibitory concentration (IC50) – broadly, the concentration needed to halve the response being measured – came to 118 µM.

As to `NNC(=O)c1ccncc1` [ISONIAZID], the MIC was 0.5 µM (≈ 0.0686 µg/mL) in test [1]; 250 µM (≈ 34.3 µg/mL) against Mycobacterium avium [2]; 1 µM (≈ 0.137 µg/mL) in test [3]; 250 µM (≈ 34.3 µg/mL) in the test on Mycobacterium avium [4]; 250 µM (≈ 34.3 µg/mL) in the test with Mycobacterium kansasii [5]; 250 µM (≈ 34.3 µg/mL) with Mycobacterium kansasii [6]. The MIC against Mycobacterium kansasii [7] was 250 µM (≈ 34.3 µg/mL); in the test on Mycobacterium kansasii [8] it was 4 µM (≈ 0.549 µg/mL); against Mycobacterium kansasii [9], 4 µM (≈ 0.549 µg/mL); in the test on Mycobacterium kansasii [10] it was 4 µM (≈ 0.549 µg/mL).

Take `COc1ccc(C[Se]c2nnn(Cc3cc([N+](=O)[O-])cc([N+](=O)[O-])c3)n2)cc1`: the MIC in test [1] is 4 µM (≈ 1.8 µg/mL); in the test on Mycobacterium avium [2], 16 µM (≈ 7.19 µg/mL); in [3] it was 8 µM (≈ 3.59 µg/mL); with Mycobacterium avium [4], 32 µM (≈ 14.4 µg/mL); in the test with Mycobacterium kansasii [5], 8 µM (≈ 3.59 µg/mL); in the test with Mycobacterium kansasii [6], 16 µM (≈ 7.19 µg/mL). Moreover, the MIC in the test on Mycobacterium kansasii [7] was determined as 16 µM (≈ 7.19 µg/mL); with Mycobacterium kansasii [8] it was 16 µM (≈ 7.19 µg/mL); against Mycobacterium kansasii [9], 32 µM (≈ 14.4 µg/mL); with Mycobacterium kansasii [10] it was 32 µM (≈ 14.4 µg/mL).

As to `O=[N+]([O-])c1ccc(Cn2nnc([Se]Cc3ccccc3)n2)c([N+](=O)[O-])c1`, the MIC in [1] is 1 µM (≈ 0.419 µg/mL); in the test on Mycobacterium avium [2], 4 µM (≈ 1.68 µg/mL); in test [3], 1 µM (≈ 0.419 µg/mL); in the test on Mycobacterium avium [4], 8 µM (≈ 3.35 µg/mL); in the test with Mycobacterium kansasii [5] it was 8 µM (≈ 3.35 µg/mL); in the test with Mycobacterium kansasii [6] it was 16 µM (≈ 6.71 µg/mL). The minimal inhibitory concentration (MIC) came out at 16 µM (≈ 6.71 µg/mL) against Mycobacterium kansasii [7], 8 µM (≈ 3.35 µg/mL) against Mycobacterium kansasii [8], 16 µM (≈ 6.71 µg/mL) in the test with Mycobacterium kansasii [9] and 32 µM (≈ 13.4 µg/mL) with Mycobacterium kansasii [10].

As to `Cn1nnnc1[Se]Cc1cc([N+](=O)[O-])cc([N+](=O)[O-])c1`, the MIC in [1] stood at 8 µM (≈ 2.75 µg/mL); against Mycobacterium avium [2] it was 500 µM (≈ 172 µg/mL); in test [3], 8 µM (≈ 2.75 µg/mL); in the test on Mycobacterium avium [4] it was 500 µM (≈ 172 µg/mL); in the test on Mycobacterium kansasii [5], 8 µM (≈ 2.75 µg/mL); in the test on Mycobacterium kansasii [6] it was 32 µM (≈ 11 µg/mL). The MIC in the test on Mycobacterium kansasii [7] turned out to be 32 µM (≈ 11 µg/mL); with Mycobacterium kansasii [8], 16 µM (≈ 5.49 µg/mL); in the test on Mycobacterium kansasii [9], 32 µM (≈ 11 µg/mL); against Mycobacterium kansasii [10], 32 µM (≈ 11 µg/mL).

Turning to `COc1ccc(C[Se]c2nnnn2Cc2cc([N+](=O)[O-])cc([N+](=O)[O-])c2)cc1`, the MIC came out at 16 µM (≈ 7.19 µg/mL) in test [1]; 125 µM (≈ 56.2 µg/mL) in the test on Mycobacterium avium [2]; 16 µM (≈ 7.19 µg/mL) in [3]; 125 µM (≈ 56.2 µg/mL) in the test with Mycobacterium avium [4]; 16 µM (≈ 7.19 µg/mL) against Mycobacterium kansasii [5]; 32 µM (≈ 14.4 µg/mL) with Mycobacterium kansasii [6]. In addition, the MIC with Mycobacterium kansasii [7] worked out at 62 µM (≈ 27.9 µg/mL); against Mycobacterium kansasii [8], 16 µM (≈ 7.19 µg/mL); against Mycobacterium kansasii [9], 32 µM (≈ 14.4 µg/mL); in the test on Mycobacterium kansasii [10] it was 62 µM (≈ 27.9 µg/mL).

As to `O=[N+]([O-])c1ccc(C[Se]c2nnn(Cc3ccc([N+](=O)[O-])cc3)n2)cc1`, the MIC in [1] was found to be 62 µM (≈ 26 µg/mL); in the test with Mycobacterium avium [2] it was 250 µM (≈ 105 µg/mL); in test [3], 62 µM (≈ 26 µg/mL); in the test with Mycobacterium avium [4], 250 µM (≈ 105 µg/mL); against Mycobacterium kansasii [5], 32 µM (≈ 13.4 µg/mL); against Mycobacterium kansasii [6], 125 µM (≈ 52.4 µg/mL). Moreover, the minimum inhibitory concentration (MIC) with Mycobacterium kansasii [7] was found to be 125 µM (≈ 52.4 µg/mL); in the test with Mycobacterium kansasii [8], 62 µM (≈ 26 µg/mL); with Mycobacterium kansasii [9] it was 125 µM (≈ 52.4 µg/mL); with Mycobacterium kansasii [10], 125 µM (≈ 52.4 µg/mL).

Turning to `COc1ccc(C[Se]c2nnnn2Cc2ccc([N+](=O)[O-])cc2[N+](=O)[O-])cc1`, the MIC in test [1] was 4 µM (≈ 1.8 µg/mL); against Mycobacterium avium [2], 125 µM (≈ 56.2 µg/mL); in test [3], 8 µM (≈ 3.59 µg/mL); in the test with Mycobacterium avium [4] it was 125 µM (≈ 56.2 µg/mL); against Mycobacterium kansasii [5] it was 16 µM (≈ 7.19 µg/mL); in the test with Mycobacterium kansasii [6], 32 µM (≈ 14.4 µg/mL). Also, the MIC in the test with Mycobacterium kansasii [7] stood at 62 µM (≈ 27.9 µg/mL); with Mycobacterium kansasii [8], 4 µM (≈ 1.8 µg/mL); in the test on Mycobacterium kansasii [9], 16 µM (≈ 7.19 µg/mL); in the test on Mycobacterium kansasii [10], 32 µM (≈ 14.4 µg/mL).
